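Test compounds were applied to cells in 96-well plates for 48 hours at 5 doses. TGI is the concentration that stops growth completely.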
Tests used:
Test in all cases: NCI tumour cell line growth inhibition, 48 h
[1] = test system: SF-268 CNS
[2] = test system: SNB-19 CNS
[3] = test system: HCT-116 colon
[4] = test system: XF 498 CNS
[5] = test system: CCRF-CEM leukemia
[6] = test system: HOP-18 NSCLC
[7] = test system: SN12C renal
[8] = test system: UO-31 renal
[9] = test system: NCI-H226 lung
[10] = test system: SF-539 CNS
[11] = test system: EKVX NSCLC
[12] = test system: OVCAR-5 ovarian
[13] = test system: TK-10 renal
[14] = test system: NCI-H23 lung
[15] = test system: HCT-15 colon
[16] = test system: HCC-2998 colon
[17] = test system: SR leukemia
[18] = test system: OVCAR-8 ovarian
[19] = test system: HOP-92 NSCLC
[20] = test system: RXF-631 renal
[21] = test system: UACC-257 melanoma
[22] = test system: SW-620 colon
[23] = test system: DMS 273 small cell lung
[24] = test system: SK-MEL-2 melanoma
[25] = test system: OVCAR-3 ovarian
[26] = test system: KM20L2 colon
[27] = test system: HOP-62 NSCLC
[28] = test system: SK-MEL-28 melanoma
[29] = test system: COLO 205 colon
[30] = test system: M19-MEL melanoma
[31] = test system: A549 NSCLC
[32] = test system: RXF 393 renal
[33] = test system: U251 CNS
[34] = test system: SNB-78 CNS
[35] = test system: UACC-62 melanoma
[36] = test system: HL-60(TB) leukemia
[37] = test system: ACHN renal
[38] = test system: MALME-3M melanoma
[39] = test system: RPMI-8226 leukemia
[40] = test system: 786-0 renal
[41] = test system: LXFL 529 NSCLC
[42] = test system: SK-OV-3 ovarian
[43] = test system: IGROV1 ovarian
[44] = test system: SF-295 CNS
[45] = test system: LOX IMVI melanoma
[46] = test system: SK-MEL-5 melanoma
[47] = test system: MOLT-4 leukemia
[48] = test system: M14 melanoma
[49] = test system: SNB-75 CNS
[50] = test system: HT29 colon
[51] = test system: OVCAR-4 ovarian
[52] = test system: DLD-1 colon
[53] = test system: NCI-H460 lung
[54] = test system: DMS 114 small cell lung
[55] = test system: CAKI-1 renal
[56] = test system: K-562 leukemia
[57] = test system: P388 leukemia
[58] = test system: KM12 colon
[59] = test system: P388/ADR leukemia
[60] = test system: SN12K1 renal
[61] = test system: A498 renal
[62] = test system: MCF7 breast
[63] = test system: NCI/ADR-RES ovarian
[64] = test system: NCI-H522 lung

Measured: TGI

Cc1cc2c(C)nn(Cc3ccc(Cl)cc3)c2c(C#N)c1C
> 100 µM: [1] | [2] | [3] | [4] | [5] | [6] | [7] | [8] | [9] | [10] | [11] | [12] | [13] | [14] | [15] | [16] | [17] | [18] | [20] | [21] | [22] | [23] | [24] | [25] | [26] | [27] | [28] | [29] | [30] | [31] | [32] | [33] | [34] | [35] | [36] | [37] | [38] | [39] | [40] | [41] | [42] | [43] | [44]
95.1 µM: [19]

O=C(O)CCc1nn2c(nc1=O)sc1ccc3ccccc3c12
> 100 µM: [45] | [46] | [1] | [2] | [3] | [4] | [5] | [6] | [47] | [7] | [8] | [9] | [10] | [48] | [11] | [49] | [13] | [50] | [51] | [14] | [15] | [16] | [17] | [18] | [19] | [52] | [20] | [21] | [53] | [22] | [23] | [25] | [26] | [27] | [28] | [54] | [29] | [30] | [31] | [32] | [33] | [34] | [35] | [36] | [37] | [38] | [55] | [39] | [40] | [56] | [41] | [42] | [43] | [44]

N/C(=N\N=C\c1ccc2c(c1)OCCO2)NO
> 49.1 µM: [1]
38.5 µM: [29]
> 30.6 µM: [4]
57.6 µM: [23]
> 100 µM: [3] | [5] | [6] | [58] | [47] | [7] | [61] | [11] | [49] | [51] | [14] | [15] | [52] | [53] | [22] | [28] | [32] | [33] | [34] | [55] | [42] | [43]
> 55.1 µM: [63]
47.3 µM: [57]
57.1 µM: [44]
98.6 µM: [30]
> 40.8 µM: [12]
> 32.6 µM: [2]
> 61.2 µM: [21]
> 72.4 µM: [56]
> 76.6 µM: [18]
33.6 µM: [50]
40.5 µM: [59]
42.1 µM: [64]
> 77.6 µM: [54]
27.5 µM: [9]
> 82.9 µM: [31]
93.2 µM: [27]
> 52 µM: [26]
70.4 µM: [24]
> 72.7 µM: [45]
> 63.2 µM: [36]
> 53 µM: [8]
16.2 µM: [25]
> 34.4 µM: [35]
22.4 µM: [46]
> 82.4 µM: [62]
> 57.7 µM: [60]
> 81.1 µM: [10]
> 64.4 µM: [39]
80.6 µM: [19]

CC1(C)C2C=CC1C(=O)CC2 (stereo unspecified)
> 100 µM: [45] | [46] | [1] | [2] | [3] | [4] | [5] | [6] | [58] | [47] | [8] | [9] | [61] | [10] | [48] | [11] | [49] | [12] | [13] | [50] | [51] | [14] | [15] | [16] | [18] | [19] | [52] | [20] | [21] | [53] | [22] | [23] | [24] | [25] | [26] | [27] | [28] | [31] | [32] | [33] | [34] | [36] | [37] | [38] | [55] | [39] | [40] | [56] | [41] | [44] | [64]

CC1OC(n2cc(F)c(=O)[nH]c2=O)C=CC1=O (stereo unspecified)
66.4 µM: [9]
33.2 µM: [19]
29.6 µM: [25]
30.7 µM: [13]
53 µM: [5]
89.1 µM: [29]
49.3 µM: [50]
31.2 µM: [41]
> 100 µM: [14] | [20] | [27] | [31] | [56] | [43]
32.5 µM: [49]
31.1 µM: [55]
30 µM: [12]
33.6 µM: [51]
32.4 µM: [35]
29.8 µM: [3]
31.9 µM: [37]
34.6 µM: [26]
23.2 µM: [64]
32.2 µM: [21]
28.9 µM: [24]
38.6 µM: [22]
36 µM: [52]
43.8 µM: [16]
56.8 µM: [53]
47.9 µM: [18]
32.3 µM: [54]
31.4 µM: [46]
34.1 µM: [6] | [48]
36.9 µM: [61]
31 µM: [10] | [44]
46.1 µM: [15]
35.3 µM: [38]
36.2 µM: [30]
29.4 µM: [40]
36.1 µM: [23]
30.3 µM: [8]
93.2 µM: [39]
34.8 µM: [2]
69.3 µM: [47]
31.8 µM: [7]
30.4 µM: [32]
70.3 µM: [36]
38.7 µM: [1]
55.8 µM: [17]
37.1 µM: [34]
95.9 µM: [42]
28.7 µM: [45]
31.5 µM: [58] | [28]
27.9 µM: [33]

From PubChem BioAssay (NCI)
